From paper PMC10180137 (Molecules, 2023)
Read-outs that look alike come from different tables or passages of the source.

Assays:
[1] = biological target: yeast α-glucosidase; assay: α-glucosidase inhibitory activity assay (p-NPG substrate, absorbance at 405 nm); assay type: biochemical, Saccharomyces cerevisiae
Method: This experiment was carried out in 96-well plates with reaction system of 230 μL. […] The 96-well plates were incubated in a constant-temperature incubator for 20 min at 37 °C, then 20 μL of 2.658 mmol/L p-PNG was added, and then incubation continued for another 28 min. The termination of the reaction was conducted by adding 80 μL of 0.2 mol/L Na2CO3 to each well. The absorbance was recorded for each well at 405 nm by a microplate reader, and the experiment was carried out three times in parallel. The measured absorbance values were processed by Graphpad Prism software 9.5 to calculate the IC50 values of the compounds.

[2] = tested on: α-glucosidase; assay: Inhibitory kinetics against α-glucosidase (Lineweaver–Burk plots); assay type: biochemical, Saccharomyces cerevisiae; details: Lineweaver–Burk plot; compound 0, 5.44, 10.87, 21.74 μM
From the text: The inhibitory kinetics of seven compounds (8-9, 11, 13, 24-26) that have strong α-glucosidase inhibitory activities were studied. The Lineweaver–Burk plot was used to determine their inhibition types against α-glucosidase. […] As for compound 8, the slope of the lines became greater with the increase in the concentration, but all straight lines intersected with the x-axis almost at one point (while Vmax decreased, Km was unchanged), showing that α-glucosidase inhibition mediated by compound 8 is noncompetitive, signifying that it can bind to either the free α-glucosidase or the enzyme–substrate complex to interfere the enzyme reaction without directly blocking the binding of the substrate to the enzyme.
Concentrations of active compounds 8-9, 11, 13, 24-26 (0, 5.44, 10.87, 21.74 μM) and the substrate p-NPG ([…]) were prepared, and an experimental protocol is described in detail in the literature. The data were acquired using the Lineweaver–Burk equation of enzyme kinetics.

[3] = IC50 ± SD, PBS pH 6.8, 37 °C, three times in parallel, read-out: IC50 (μM), inhibition activities on α-Glucosidase
[4] = unit inferred, read-out: IC50 against α-glucosidase (unit inferred)

Compound | IC50 [1, 3] [µM] | other results
O=c1cc(-c2ccc(O)c(O)c2)oc2cc(O)ccc12 [Compound 25, 7, 3′, 4′-trihydroxy flavone] | 3.17 ± 0.55 | IC50 [1, 4]: 3.17 ± 0.55 µM
7, 3′, 4′-trihydroxy isoflavone [Compound 24] | 6.5 ± 0.42 | –
COc1cc(O)c2c3c1C[C@H](C(C)(C)O)[C@H](c1ccccc1)[C@H]3OC2=O [Compound 1, cajanstilbenoid C] | > 2000 | –
3, 4′-O-dimethylquercetin [Compound 21] | 19.4 ± 1.02 | –
COc1cc(O)c2c(c1CC=C(C)C)O[C@H](c1ccccc1)[C@@H](O)C2=O [Compound 14, 3,5-dihydroxy-7-methoxy-8-isopentenyl-dihydroflavone] | > 2000 | –
COc1cc(/C=C/c2ccccc2)c(C(=O)O)c2c1C[C@@H](O)C(C)(C)O2 [Compound 2, cajanstilbenoid D] | > 2000 | –
O=c1cc(-c2ccc(O)cc2)oc2c(C3OCC(O)C(O)C3O)c(O)cc(O)c12 [Compound 23, apigenin-8-C-α-L-arabinopyranoside] | > 2000 | –
COc1cc(O)c2c(c1)O[C@H](c1ccc(O)cc1)CC2=O [Compound 16, sakuranetin] | > 2000 | –
CC(C)=CCc1c(O)cc(/C=C/c2ccccc2)cc1O [Compound 3, chiricanine A] | 30.3 ± 2.33 | –
COc1cc(/C=C/c2ccccc2)c(C(=O)O)c(O)c1CC=C(C)C [Compound 5, cajaninstilbene acid] | > 2000 | –
CC(C)=CCc1c(O)cc(O)c2c1O[C@H](c1ccc(O)cc1)[C@@H](O)C2=O [Compound 20, neophellamuretin] | 4.5 ± 0.49 | IC50 [1, 4]: 4.5 ± 0.49 µM
COc1ccc2c(=O)c(-c3ccc(O)cc3O)coc2c1 [Compound 18, 7-methoxy-2′, 4′-dihydroxy isoflavone] | > 2000 | –
COc1cc(O)cc(CCc2ccccc2)c1CC=C(C)C [Compound 8] | 7 ± 0.45 | inhibition type against α-glucosidase [2]: noncompetitive
CC1(C)Oc2cc(/C=C/c3ccccc3)cc(O)c2CC1O (stereo not drawn) [Compound 4, chiricanine B] | > 2000 | –
COc1cc(O)c2c(c1)O[C@H](c1ccccc1)CC2=O [Compound 15, pinostrobin] | > 2000 | –
CC1(C)C=Cc2c(cc3occ(-c4ccc(O)cc4)c(=O)c3c2O)O1 [Compound 27, alpinum isoflavone] | > 2000 | –
CC(C)=CCc1c(O)cc2oc(-c3ccccc3)cc(=O)c2c1O [Compound 12, 6-C-(3,3-dimethylallyl) chrysin] | > 2000 | –
COc1cc(O)c2c(=O)cc(-c3ccccc3)oc2c1CC=C(C)C [Compound 13, 5-hydroxy-7-methoxy-8-prenylflavone] | 2.3 ± 0.51 | inhibition type against α-glucosidase [2]: mixed-competitive; IC50 [1, 4]: 2.3 ± 0.5 µM
CC1(C)C=Cc2c(cc(O)c3c2O[C@H](c2ccc(O)cc2)CC3=O)O1 [Compound 26, 8-prenylnaringenin C] | 2.35 ± 0.54 | IC50 [1, 4]: 2.35 ± 0.54 µM
COc1cc(O)cc(/C=C/c2ccccc2)c1 [Compound 6, pinosylvin monomethyl ether] | > 2000 | –
COc1ccc(-c2oc3cc(O)cc(O)c3c(=O)c2O)cc1O [Compound 19, tamarixetin] | 8.7 ± 0.08 | –
COc1cc(/C=C/c2ccccc2)cc(O)c1CC=C(C)C [Compound 9, longistylin A] | 12.9 ± 1.31 | inhibition type against α-glucosidase [2]: mixed-competitive
CC(C)=CCc1c(O)cc(O)c2c(=O)c(O)c(-c3ccc(O)c(O)c3)oc12 [Compound 11, 8-prenylquercretin] | 0.87 ± 0.05 | inhibition type against α-glucosidase [2]: anticompetitive; IC50 ([1]; read-out: IC50 against α-glucosidase (text, with unit)): 0.87 ± 0.05 µM
COc1cc(O)cc(CC(=O)c2ccccc2)c1CC=C(C)C [Compound 7, cajanotone] | > 2000 | –
